Laboratory results published in US20240398828A1, “HETERO-ATOM CONTAINING COMPOUNDS AND USES THEREOF” (Kumquat Biosciences Inc., priority 2021, published 2024).

Tests used:
PTPN2 (i.e., TC-PTP) = molecular target: T1, PTPN2 (i.e., TC-PTP) (Homo sapiens, UniProt P17706); assay: Phosphatase activity assay (DiFMUP substrate), PTPN2; type: biochemical; conditions: compounds binned ≤1 uM or >1 uM
T1 sequence (P17706 1-415): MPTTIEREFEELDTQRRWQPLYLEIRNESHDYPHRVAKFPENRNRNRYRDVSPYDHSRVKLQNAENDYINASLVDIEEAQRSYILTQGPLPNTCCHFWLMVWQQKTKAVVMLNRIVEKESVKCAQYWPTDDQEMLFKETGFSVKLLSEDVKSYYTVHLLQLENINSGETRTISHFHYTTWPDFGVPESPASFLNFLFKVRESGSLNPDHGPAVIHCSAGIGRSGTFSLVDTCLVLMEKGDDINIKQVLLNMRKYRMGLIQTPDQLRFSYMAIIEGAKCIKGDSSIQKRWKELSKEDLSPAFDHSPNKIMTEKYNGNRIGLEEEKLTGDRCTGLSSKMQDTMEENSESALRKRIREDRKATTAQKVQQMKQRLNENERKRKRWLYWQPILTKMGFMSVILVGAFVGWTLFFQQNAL
Method in brief: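 RT, HEPES pH 7.5 buffer with DTT/Tween-20. 10-point inhibitor series premixed ~2 min with enzyme (PTPN2 0.025 ng/ul). Start with DiFMUP at enzyme Km (~45 μM for PTPN2). Read DiFMU ex360/em450 continuously 15–30 min; initial rate vs concentration, 4-parameter fit → IC50.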

PTPN1 (i.e., PTP1B) = molecular target: T2, PTPN1 (i.e., PTP1B) (Homo sapiens, UniProt P18031); assay: Phosphatase activity assay (DiFMUP substrate), PTP1B; type: biochemical; conditions: compounds binned ≤1 uM or >1 uM
T2 sequence (P18031 1-435): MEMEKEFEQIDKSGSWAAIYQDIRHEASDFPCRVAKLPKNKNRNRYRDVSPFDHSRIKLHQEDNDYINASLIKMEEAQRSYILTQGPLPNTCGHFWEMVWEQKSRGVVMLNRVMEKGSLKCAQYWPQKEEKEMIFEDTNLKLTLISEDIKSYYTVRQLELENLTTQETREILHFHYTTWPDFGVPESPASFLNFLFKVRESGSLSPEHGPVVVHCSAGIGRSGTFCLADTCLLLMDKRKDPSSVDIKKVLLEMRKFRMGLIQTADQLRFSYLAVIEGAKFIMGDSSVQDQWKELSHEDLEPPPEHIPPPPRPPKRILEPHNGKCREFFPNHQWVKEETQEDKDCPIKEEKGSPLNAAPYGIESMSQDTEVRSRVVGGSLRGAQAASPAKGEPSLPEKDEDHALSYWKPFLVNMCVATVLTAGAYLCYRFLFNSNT
Method in brief: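 Continuous fluorogenic readout of DiFMUP dephosphorylation at room temperature, substrate set at Km for each phosphatase (about 45 μM in the PTPN2 assay). The buffer contains 1 mM DTT and 0.001% Tween-20, pH 7.5.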

SMILES | IC50 (PTPN2 (i.e., TC-PTP)) [nM] | IC50 (PTPN1 (i.e., PTP1B)) [nM]
O=C1CN(c2c(O)ccc(-c3cc(C(=O)N4CCC4)n[nH]3)c2F)S(=O)(=O)N1 [Compound 230, 5-(3-(3-(azetidine-1-carbonyl)-1H-pyrazol-5-yl)-2-fluoro-6-hydroxyphenyl)-1,2,5-thiadiazolidin-3-one 1,1-dioxide] | ≤ 1000 | ≤ 1000
O=C1CN(c2c(O)ccc(-c3ccnc(-c4ccccc4)c3)c2F)S(=O)(=O)N1 [Compound 136, 5-(2-fluoro-6-hydroxy-3-(2-phenylpyridin-4-yl)phenyl)-1,2,5-thiadiazolidin-3-one 1,1-dioxide] | > 1000 | ≤ 1000
O=C1CN(c2c(O)ccc(-c3ccc(NS(=O)(=O)C4CCC4)cc3)c2F)S(=O)(=O)N1 [Compound 335, N-(3′-(1,1-dioxido-4-oxo-1,2,5-thiadiazolidin-2-yl)-2′-fluoro-4′-hydroxy-[1,1′-biphenyl]-4-yl)cyclobutanesulfonamide] | ≤ 1000 | ≤ 1000
COc1ccccc1-n1cnc(-c2ccc(O)c(N3CC(=O)NS3(=O)=O)c2F)c1 [Compound 346, 5-(2-fluoro-6-hydroxy-3-(1-(2-methoxyphenyl)-1H-imidazol-4-yl)phenyl)-1,2,5-thiadiazolidin-3-one 1,1-dioxide] | ≤ 1000 | ≤ 1000
CC(C)CCn1cnc(-c2ccc(O)c(C3CC(=O)NS3(=O)=O)c2F)c1 (stereo not drawn) [Compound 246, 5-(2-fluoro-6-hydroxy-3-(1-isopentyl-1H-imidazol-4-yl)phenyl)isothiazolidin-3-one 1,1-dioxide] | > 1000 | > 1000
NCC1CCCN1c1cc(-c2ccc(O)c(N3CC(=O)NS3(=O)=O)c2F)[nH]n1 (stereo not drawn) [Compound 308, 5-(3-(3-(2-(aminomethyl)pyrrolidin-1-yl)-1H-pyrazol-5-yl)-2-fluoro-6-hydroxyphenyl)-1,2,5-thiadiazolidin-3-one 1,1-dioxide] | ≤ 1000 | ≤ 1000
O=C1CN(c2c(O)ccc(-c3cn(-c4cc(F)cc(F)c4)cn3)c2F)S(=O)(=O)N1 [Compound 265, 5-(3-(1-(3,5-difluorophenyl)-1H-imidazol-4-yl)-2-fluoro-6-hydroxyphenyl)-1,2,5-thiadiazolidin-3-one 1,1-dioxide] | ≤ 1000 | ≤ 1000
O=C1CN(c2c(O)ccc(-c3cc(N4CCC5(CCCN5)C4)n[nH]3)c2F)S(=O)(=O)N1 (stereo not drawn) [Compound 321, 5-(3-(3-(1,7-diazaspiro[4.4]nonan-7-yl)-1H-pyrazol-5-yl)-2-fluoro-6-hydroxyphenyl)-1,2,5-thiadiazolidin-3-one 1,1-dioxide] | ≤ 1000 | ≤ 1000
O=C1CN(c2c(O)ccc(-c3cn(-c4ccc(F)cc4)cn3)c2F)S(=O)(=O)N1 [Compound 209, 5-(2-fluoro-3-(1-(4-fluorophenyl)-1H-imidazol-4-yl)-6-hydroxyphenyl)-1,2,5-thiadiazolidin-3-one 1,1-dioxide] | ≤ 1000 | ≤ 1000
O=C1CN(c2c(O)ccc(C3=CC(CO)NC3)c2F)S(=O)(=O)N1 (stereo not drawn) [Compound 398, 5-(2-fluoro-6-hydroxy-3-(5-(hydroxymethyl)-2,5-dihydro-1H-pyrrol-3-yl)phenyl)-1,2,5-thiadiazolidin-3-one 1,1-dioxide] | ≤ 1000 | ≤ 1000
O=C1CN(c2c(O)ccc(C3=CCC(NCC4CC4)CC3)c2F)S(=O)(=O)N1 (stereo not drawn) [Compound 315, 5-(4′-((cyclopropylmethyl)amino)-2-fluoro-4-hydroxy-2′,3′,4′,5′-tetrahydro-[1,1′-biphenyl]-3-yl)-1,2,5-thiadiazolidin-3-one 1,1-dioxide] | ≤ 1000 | ≤ 1000
O=C1CN(c2c(O)ccc(-c3cc(CCCC4CC4)n[nH]3)c2F)S(=O)(=O)N1 [Compound 464, 5-(3-(3-(3-cyclopropylpropyl)-1H-pyrazol-5-yl)-2-fluoro-6-hydroxyphenyl)-1,2,5-thiadiazolidin-3-one 1,1-dioxide] | ≤ 1000 | ≤ 1000
Cn1nc(-c2ccc(O)c(N3CC(=O)NS3(=O)=O)c2F)nc1C1CC1(F)F (stereo not drawn) [Compound 540, 5-(3-(5-(2,2-difluorocyclopropyl)-1-methyl-1H-1,2,4-triazol-3-yl)-2-fluoro-6-hydroxyphenyl)-1,2,5-thiadiazolidin-3-one 1,1-dioxide] | ≤ 1000 | ≤ 1000
CN1CCN(c2ccc(-c3ccc(O)c(N4CC(=O)NS4(=O)=O)c3F)cn2)CC1 [Compound 202, 5-(2-fluoro-6-hydroxy-3-(6-(4-methylpiperazin-1-yl)pyridin-3-yl)phenyl)-1,2,5-thiadiazolidin-3-one 1,1-dioxide] | ≤ 1000 | ≤ 1000
CC(C)CCNC1CCCN(c2cc(O)c(N3CC(=O)NS3(=O)=O)c(F)c2)C1 (stereo not drawn) [Compound 104, 5-(2-fluoro-6-hydroxy-4-(3-(isopentylamino)piperidin-1-yl)phenyl)-1,2,5-thiadiazolidin-3-one 1,1-dioxide] | ≤ 1000 | ≤ 1000

Now from value to compound:

IC50 (PTPN2 (i.e., TC-PTP)) [nM] | IC50 (PTPN1 (i.e., PTP1B)) [nM] | SMILES
≤ 1000 | ≤ 1000 | Cc1n[nH]c(-c2ccc(O)c(N3CC(=O)NS3(=O)=O)c2F)c1C [Compound 375, 5-(3-(3,4-dimethyl-1H-pyrazol-5-yl)-2-fluoro-6-hydroxyphenyl)-1,2,5-thiadiazolidin-3-one 1,1-dioxide]
≤ 1000 | ≤ 1000 | O=C1CN(c2c(O)ccc(-c3cnn(C4CCC(F)(F)CC4)c3)c2F)S(=O)(=O)N1 [Compound 446, 5-(3-(1-(4,4-difluorocyclohexyl)-1H-pyrazol-4-yl)-2-fluoro-6-hydroxyphenyl)-1,2,5-thiadiazolidin-3-one 1,1-dioxide]
≤ 1000 | ≤ 1000 | CN1CC2(CCC(n3cc(-c4ccc(O)c(N5CC(=O)NS5(=O)=O)c4F)cn3)C2)C1 (stereo not drawn) [Compound 442, 5-(2-fluoro-6-hydroxy-3-(1-(2-methyl-2-azaspiro[3.4]octan-6-yl)-1H-pyrazol-4-yl)phenyl)-1,2,5-thiadiazolidin-3-one 1,1-dioxide]
≤ 1000 | ≤ 1000 | O=C1CN(c2c(O)ccc(-c3cnn(CC4CC5CCC(C4)O5)c3)c2F)S(=O)(=O)N1 (stereo not drawn) [Compound 422, 5-(3-(1-((8-oxabicyclo[3.2.1]octan-3-yl)methyl)-1H-pyrazol-4-yl)-2-fluoro-6-hydroxyphenyl)-1,2,5-thiadiazolidin-3-one 1,1-dioxide]
≤ 1000 | ≤ 1000 | O=C1CN(c2c(O)ccc(-c3cn(C4CC4)[nH]c3=O)c2F)S(=O)(=O)N1 [Compound 245, 5-(3-(1-cyclopropyl-3-oxo-2,3-dihydro-1H-pyrazol-4-yl)-2-fluoro-6-hydroxyphenyl)-1,2,5-thiadiazolidin-3-one 1,1-dioxide]
≤ 1000 | ≤ 1000 | Cc1noc(C)c1Cn1ccc(-c2ccc(O)c(N3CC(=O)NS3(=O)=O)c2F)c1 [Compound 390, 5-(3-(1-((3,5-dimethylisoxazol-4-yl)methyl)-1H-pyrrol-3-yl)-2-fluoro-6-hydroxyphenyl)-1,2,5-thiadiazolidin-3-one 1,1-dioxide]
≤ 1000 | ≤ 1000 | CC(C)(C)n1cc(-c2ccc(O)c(N3CC(=O)NS3(=O)=O)c2F)cn1 [Compound 293, 5-(3-(1-(tert-butyl)-1H-pyrazol-4-yl)-2-fluoro-6-hydroxyphenyl)-1,2,5-thiadiazolidin-3-one 1,1-dioxide]
≤ 1000 | ≤ 1000 | Cn1cc(-c2ccc(O)c(N3CC(=O)NS3(=O)=O)c2F)cn1 [Compound 227, 5-(2-fluoro-6-hydroxy-3-(1-methyl-1H-pyrazol-4-yl)phenyl)-1,2,5-thiadiazolidin-3-one 1,1-dioxide]
≤ 1000 | ≤ 1000 | O=C1CN(c2c(O)ccc(-c3cnn(CC4CCOCC4)c3)c2F)S(=O)(=O)N1 [Compound 171, 5-(2-fluoro-6-hydroxy-3-(1-((tetrahydro-2H-pyran-4-yl)methyl)-1H-pyrazol-4-yl)phenyl)-1,2,5-thiadiazolidin-3-one 1,1-dioxide]
≤ 1000 | ≤ 1000 | Cn1cnc(-c2ccc(O)c(N3CC(=O)NS3(=O)=O)c2F)c1 [Compound 115]
≤ 1000 | ≤ 1000 | CC(C)CCc1cnc(-c2ccc(O)c(N3CC(=O)NS3(=O)=O)c2F)[nH]1 [Compound 262, 5-(2-fluoro-6-hydroxy-3-(5-isopentyl-1H-imidazol-2-yl)phenyl)-1,2,5-thiadiazolidin-3-one 1,1-dioxide]
≤ 1000 | ≤ 1000 | CCC(CC)n1cnc(-c2ccc(O)c(N3CC(=O)NS3(=O)=O)c2F)c1 [Compound 350, 5-(2-fluoro-6-hydroxy-3-(1-(pentan-3-yl)-1H-imidazol-4-yl)phenyl)-1,2,5-thiadiazolidin-3-one 1,1-dioxide]
